Measurements from US6160008A, “Pharmaceutical compositions comprising S-alkylisothiouronium derivatives” (priority 1996, dated 2000).
Entries after “also recorded” stand apart in the source; their conditions may differ.

Tests used:
[1] = Biochemical indices of mice blood serum, chronic experiment (Table 9); type: in vivo, F1 (C57B1×CBA); conditions: for Body mass / Glucose / Total cholestrol / Total protein: 100 mg/kg i.v.; for Total protein: in g/L (unit assumed)
Method: The effect of S-ethylisothiouronium diethylphosphate on body constituents was estimated in chronic and acute experiments. These experiments were conducted on F1 (C57B1×CBA) line mice and biochemical tests were made after a single administration of S-ethylisothiouronium diethylphosphate, injected intravenously at doses of 100 mg/kg (in the chronic experiment) and 500 mg/kg (in the acute experiment).
In the acute experiment, blood was taken 30, 60 and 75 minutes after the administration of the medicine. In the chronic experiment (which lasted 30 days), blood was daily examined 1 hour after the injection. Terms of the study were 1, 7, 14, and 21 days. The concentrations of total protein, total cholesterol, and glucose in mice blood serum were determined by conventional methods. Total protein was determined by a biuret method, total cholesterol--by like method, glucose--by the glucose-oxidase method.
Mouse blood was obtained after rapid decapitation. Tested material was sampled at the same time of the day and on the same season.
Blood for serum was sampled into centrifuge test tubes, put into the thermostat for 30-40 minutes; the clot was outlined by a needle, then it was put into a refrigerator for 1 hour+4° C. After cooling it was centrifuged at 3000 RPM during 10-15 minutes. Serum with no signs of hemolysis was sampled into a clean tube. All quantitative indices of the blood biochemical characteristics were obtained by spectrophotometric measurements. Calibration curves to determine total protein and cholesterol were constructed in advance.

[2] = tested on: system hemodynamic indices; assay: System hemodynamic indices in narcotised cats (Table 2); type: in vivo
Method: An experimental study of the S-ethylisothiouronium diethylphosphate effect on the indices of system hemodynamics were performed on 8 narcotised cats with a body mass of 2-4 kg. Urethane (30% solution intraperitoneally, 1-1.2 g/kg) was used for narcostisation. To determine the period of maximum efficiency and duration of the preparation effect, the major parameters of the blood circulation were determined before its introduction (initial data) and on the 2nd, 15th, 30th, and 60th minute after the introduction, at a dose of 5 mg/kg.
The system hemodynamics was estimated on the basis of the following indices: arterial blood pressure (AP), heart rate (HR), minute volume of blood circulation (MVC), stroke volume of the heart (SV), total vascular peripheral resistance (PR), work of the left ventricle (Alv).
The arterial pressure was measured in the left […] of cats by a mercury pressure gauge. To prevent blood clotting, 0.2-0.3 ml (1000-1500 units) of heparin was injected intravenously. Heart rate was calculated according to the R--R interval of electrocardiogram. Recording was performed through two-channel electrocardiograph. MVC was calculated according to Ramirez A. A. et al. (1956). SV, ARV, and PR were calculated from the data on MVC, AP, central blood volume, and HR using C. G Wiggers formular (1947). Quantitative material obtained in the experiments was subjected to statistical analysis by the Student t-test.

[3] = Pathomorphological examination of internal organs; type: in vivo, mice, dogs; conditions: mean lethal and sublethal doses
Excerpt: The disturbance to blood circulation has a reversible character and as a rule, it normalized within 7-10 days after the preparation had no longer any effect.

[4] = tested on: acute arterial hypotension, caused by the hexamethonium administration; assay: Acute arterial hypotension caused by hexamethonium (Table 5); type: in vivo, cats; conditions: for AP / HF: 5 mg/kg i.v. after hexamethonium 10 mg/kg
Method: The influence of S-ethylisothiouronium diethylphosphate on the background of arterial hypotension caused by a known ganglion blocker-hexamethonium has been studied in cats. Hexamethonium was injected intra- venously at a dose of 10 mg/kg. Vagus and schiatic nerve stimulation was carried out by electrical pulsator with the above-threshold rectangular pulse current having a duration of 1 msec, irritation time of 10 sec, and frequency of 20 pulses/sec (peripheral section of the vagus nerve), and frequency of 300 pulses/sec (central end of the schiatic nerve).

[5] = tested on: cardiovascular system of dogs; assay: Effect on the cardiovascular system of dogs (FIGS. 11-13); type: in vivo; conditions: i.v.
Method: In the following tests, the effect of S-ethylisothiouronium diethylphosphate was studied on the cardiovascular system of dogs. AP was measured by two methods: it was registered on the tail artery by means of a piezosensor (Ugo Bazile pressure gauge) and in the thigh artery by a catheter filled with heparin. Electrocardiogram was registered in three standard branches.
S-ethylisothiouronium diethylphosphate was injected at doses of 1 mg/kg (n=5), 5 mg/kg (n=18), and 100 mg/kg (n=8). […] The development of a bradycardiac effect was noted which started already on the first minutes after the injection, reaching on the average 25-30% of the initial level. Maximal bradycardiac value was observed on the 30th-40th minutes after the experiment started and maintained till the 60th minute of the observation.
Due to this fact the study was carried out separately for normotonics and hypotonics.

[6] = 5 mg/kg i.v., 2 min after injection
[7] = 5 mg/kg i.v., 15 min after injection
[8] = 5 mg/kg i.v., 30 min after injection
[9] = 5 mg/kg i.v., 60 min after injection

CCSC(=N)N [S-ethylisothiouronium diethylphosphate]
Body mass ([1]; 1st day): 23.8 ± 0.1 g | Glucose ([1]; 1st day): 7.1 ± 1.4 mmol/L | Total cholestrol ([1]; 1st day): 4.7 ± 0.9 mmol/L | Total protein ([1]; 1st day): 75.6 ± 4.9 | Body mass ([1]; 7th day): 24.0 ± 0.2 g | Glucose ([1]; 7th day): 8.2 ± 1.8 mmol/L | Total cholestrol ([1]; 7th day): 5.0 ± 0.6 mmol/L | Total protein ([1]; 7th day): 63.5 ± 4.4 | Body mass ([1]; 14th day): 28.1 ± 0.3 g | Glucose ([1]; 14th day): 8.8 ± 1.7 mmol/L | Total cholestrol ([1]; 14th day): 3.0 ± 0.36 mmol/L | Total protein ([1]; 14th day): 72.4 ± 3.3 | Body mass ([1]; 21st day): 26.1 ± 0.5 g | Glucose ([1]; 21st day): 9.9 ± 1.8 mmol/L | Total cholestrol ([1]; 21st day): 4.9 ± 0.42 mmol/L | Total protein ([1]; 21st day): 74.9 ± 2.4 | Serum biochemistry in words ([1]; 100 mg/kg, chronic experiment): fluctuations of the studied parameters do not exceed the limits of physiological fluctuations | AP increase relative to the initial level ([2]; 5 mg/kg i.v., 2nd minute): 41% | Alv above the initial value ([2]; 5 mg/kg i.v., 2nd minute): 89% | MVC increase ([2]; 5 mg/kg i.v., 2nd minute): 7% | PR, % of the initial level ([2]; 5 mg/kg i.v., 2nd minute): 135% | Alv above the initial value ([2]; 5 mg/kg i.v., 15th minute): 22% | MVC decrease ([2]; 5 mg/kg i.v., 15th minute): 11% | MVC decrease ([2]; 5 mg/kg i.v., 30th minute): 22% | AP above the initial level ([2]; 5 mg/kg i.v., 60th minute): 11% | PR above the initial value ([2]; 5 mg/kg i.v., 60th minute): 58% | AP [2, 6]: 168 ± 9.9 mm Hg | Alv [2, 6]: 486.2 ± 136.8 g·cm | HF [2, 6]: 166 ± 17.9 per min. | MVC [2, 6]: 101.9 ± 6.8 mL/min | PR [2, 6]: 138.6 ± 10.5 10^3 . din . c . cm^-5 /kg | Stroke volume [2, 6]: 2.14 ± 0.45 mL | AP [2, 7]: 158 ± 8.1 mm Hg | Alv [2, 7]: 317.1 ± 59.4 g·cm | HF [2, 7]: 178 ± 15.4 per min. | MVC [2, 7]: 84.3 ± 5.7 mL/min | PR [2, 7]: 153.8 ± 7.1 10^3 . din . c . cm^-5 /kg | Stroke volume [2, 7]: 1.46 ± 0.25 mL | AP [2, 8]: 152 ± 8.4 mm Hg | Alv [2, 8]: 251.9 ± 50.3 g·cm | HF [2, 8]: 192 ± 11.9 per min. | MVC [2, 8]: 74.1 ± 5.2 mL/min | PR [2, 8]: 168.5 ± 13.0 10^3 . din . c . cm^-5 /kg | Stroke volume [2, 8]: 1.23 ± 0.21 mL | AP [2, 9]: 132 ± 9.3 mm Hg | Alv [2, 9]: 211.3 ± 56.1 g·cm | HF [2, 9]: 188 ± 10.4 per min. | MVC [2, 9]: 67.6 ± 8.4 mL/min | PR [2, 9]: 161.5 ± 14.1 10^3 . din . c . cm^-5 /kg | Stroke volume [2, 9]: 1.13 ± 0.26 mL | Duration of hypertensive effect ([2]; 5 mg/kg i.v., single injection): up to 1 hour | Effect on system hemodynamics in words ([2]; cats): on the 30th minute it returned to the initial level | Pathomorphological findings [3]: moderately pronounced signs of hemodynamic disturbance; also recorded: No prounced inflammatory, distrophic or necrobiotic changes of internal organs were observed; also recorded: In some cases, signs of compensatory-adaptation reactions of liver | Time to normalization of blood circulation disturbance [3]: 7 to 10 days | AP ([4]; 2 min): 152.0 ± 4.6 mm Hg | HF ([4]; 2 min): 120.0 ± 12.0 per min. | AP ([4]; 15 min): 147.0 ± 7.8 mm Hg | HF ([4]; 15 min): 105.6 ± 11.6 per min. | AP ([4]; 30 min): 146.8 ± 4.8 mm Hg | HF ([4]; 30 min): 109.2 ± 11.1 per min. | AP ([4]; 60 min): 143.0 ± 7.2 mm Hg | HF ([4]; 60 min): 108.0 ± 15.8 per min. | AP increase ([4]; 5 mg/kg i.v. after hexamethonium, 2nd minute): 61 mm Hg | Effect under ganglion blockade in words ([4]; after hexamethonium): Respiratory rate did not change; also recorded: HR changed to the direction of bradycardia, however, those changes were not statistically significant; also recorded: ganglion blocking properties are completely retained; also recorded: quickly restores the AP level after the ganglion blocker caused hypotension and maintains it for a long time | Electrocardiogram ([5]; all doses): did not reveal any pathological changes | Bradycardiac effect, relative to the initial level ([5]; dogs): 25-30% | Optimal dose ([5]; dogs): 5 to 10 mg/kg | Hypertensive effect in words ([5]; dogs, all doses): does not cause secondary hypotension; also recorded: greater in hypotensive than in normotensive animals; also recorded: pronounced hypertensive effect at all the doses used | Hypertensive effect in words ([5]; dogs, all doses, listed as S-ethylisothiouroniumdiethylphosphate): the hypertensive reaction in dogs with low arterial pressure is stronger and more prolonged
